Laboratory results from US10703749B2, “P2X7 modulators” (Janssen Pharmaceutica NV, priority 2013, dated 2020).

Molecular target: P2X7 (Homo sapiens (Human), UniProt Q99572)
Test: P2X7 antagonism in human PBMCs (IL-1β release, ELISA)
Type: cell-based
Settings: 10 μM test compound, LPS 30 ng/ml + Bz-ATP 0.5 mM
Description: Human blood was collected using a blood donor program. PBMCs were isolated from blood using a Ficoll density gradient technique. Briefly, blood was laid on Ficoll solution and centrifuged at RT for 20 minutes at 2000 rpm. The buffy layer (between red blood cells and plasma) was carefully collected by aspiration, washed with PBS and centrifuged again at 1500 rpm for 15 minutes. The resulting cell pellet was washed and plated on 96 well-plates for experiments. For the Mouse/Human Whole Blood experiments, 150 μl of either mouse or human blood was platted on 96 well-plates. Lipopolysaccharide (LPS) (30 ng/ml) was added to each well and incubated for 1 hour. Test compounds were then added and incubated for 30 minutes. The P2X7 agonist, 2′(3′)-O-(4-benzoylbenzoyl) adenosine 5′-triphosphate (Bz-ATP) was then added at a final concentration of 0.5 mM (PBMC) or 1 mM (blood). Cells were incubated for an additional 1.5 hours. At that point, supernatant was collected and stored for IL-1β assay using manufacturer's protocol for enzyme-linked immunosorbent assay (ELISA). Data was expressed as percent control, where control is defined as the difference in IL-1β release in LPS+Bz-ATP samples and LPS only samples. Data was plotted as response (% control) versus concentration to generate IC50 values.

Sequence of P2X7 (Q99572 whole entry): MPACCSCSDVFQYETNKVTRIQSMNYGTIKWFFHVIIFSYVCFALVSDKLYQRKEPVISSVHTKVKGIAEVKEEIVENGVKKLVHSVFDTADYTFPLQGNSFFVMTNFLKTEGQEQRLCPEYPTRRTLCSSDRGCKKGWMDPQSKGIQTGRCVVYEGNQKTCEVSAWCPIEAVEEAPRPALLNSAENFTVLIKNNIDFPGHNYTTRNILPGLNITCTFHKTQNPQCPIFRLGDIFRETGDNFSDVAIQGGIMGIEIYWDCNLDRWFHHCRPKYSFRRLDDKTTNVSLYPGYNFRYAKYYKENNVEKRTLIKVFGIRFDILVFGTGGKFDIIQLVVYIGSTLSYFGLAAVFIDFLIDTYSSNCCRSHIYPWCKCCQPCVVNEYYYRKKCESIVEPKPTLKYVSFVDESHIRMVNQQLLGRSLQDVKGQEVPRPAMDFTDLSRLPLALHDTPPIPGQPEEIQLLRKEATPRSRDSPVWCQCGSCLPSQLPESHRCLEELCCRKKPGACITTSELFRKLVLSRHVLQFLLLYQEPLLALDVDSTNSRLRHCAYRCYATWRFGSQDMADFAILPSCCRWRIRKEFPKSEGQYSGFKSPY

SMILES | PBMC 10 μM (% control)
Cc1c(C(=O)N2Cc3nnn(C4=NN=CC4)c3CC2C)cccc1C(F)(F)F (stereo not shown) [Example 154, (6-methyl-1-(1H-pyrazol-3-yl)-6,7-dihydro-1H-[1,2,3]triazolo[4,5-c]pyridin-5(4H)-yl)(2-methyl-3-(trifluoromethyl)phenyl)methanone] | −0.6 % control
Cc1cc(C)nc(-n2nnc3c2CCN(C(=O)c2cccc(C(F)(F)F)c2Cl)C3C)n1 (stereo not shown) [Example 253, (2-Chloro-3-(trifluoromethyl)phenyl)(1-(4,6-dimethylpyrimidin-2-yl)-4-methyl-6,7-dihydro-1H-[1,2,3]triazolo[4,5-c]pyridin-5(4H)-yl)methanone] | −2.6 % control
CC1c2nn(COCC[Si](C)(C)C)c(-c3ncc(F)cn3)c2CCN1C(=O)c1cccc(C(F)(F)F)c1Cl (stereo not shown) [Example 303, (2-chloro-3-(trifluoromethyl)phenyl)(3-(5-fluoropyrimidin-2-yl)-7-methyl-2-((2-(trimethylsilyl)ethoxy)methyl)-4,5-dihydro-2H-pyrazolo[3,4-c]pyridin-6(7H)-yl)methanone] | −1.6 % control
Cc1nc2c(n1-c1ccccc1)CCN(C(=O)c1cccc(Cl)c1Cl)C2 [Example 331, (2,3-dichlorophenyl)(2-methyl-1-phenyl-6,7-dihydro-1H-imidazo[4,5-c]pyridin-5 (4H)-yl)methanone] | −11.0 % control
